Reference: the NIST ThermoML archive (doi:10.1016/j.jct.2014.03.009)
Numbers after ± are expanded uncertainties.

Details: 298 K; 101.33 kPa; Crystal; X-ray diffraction

mass density: 1713 ± 8 kg/m3
Compound: O.O.O.O.O=C([O-])[C@H](O)[C@@H](O)[C@H](O)[C@H](O)CO.O=C([O-])[C@H](O)[C@@H](O)[C@H](O)[C@H](O)CO.[Mn+2] [manganese(II) D-gluconate tetrahydrate]
